Measurements from patent publication US4161538A, “Substituted phenylacetic acid derivatives and process for the preparation thereof” (Sankyo Company Limited, priority 1977, dated 1979).
Counter-ions that a name gives are not always drawn.

How the values were obtained:
[1] = test system: carrageenin edema; test: Anti-inflammatory activity, carrageenin edema method; type: in vivo, Wistar strain rat; settings: for inhibition in vivo at 25 mg/kg: Rattus norvegicus, po
Source text: The carrageenin edema method was employed using Wistar strain rat. [C. A. Winter, E. A. Risley, G. W. Nuss; J. Pharmacol. Exp. Therap., 141, 369(1963)]

[2] = test system: thermally induced pain; test: Analgesic activity, thermally induced pain method; type: in vivo, Wistar strain rat; settings: for inhibition in vivo at 19 mg/kg: Rattus norvegicus, po, 19 mg/kg P.O.; for Inhibition(%) Analgesic 19 mg/kg (P.O.): rat
Source text: [Y. Iizuka, K. Tanaka; Folia Pharmacol. Jap., 70, 697(1974)]

SMILES | inhibition in vivo at 25 mg/kg ([1]; 25 mg/kg P.O.) | inhibition in vivo at 19 mg/kg [2] | Inhibition(%) Anti-inflammatory 25 mg/kg (P.O.) ([1]; rat, 25 mg/kg P.O.) | Inhibition(%) Analgesic 19 mg/kg (P.O.) [2] | Inhibition(%) Anti-inflammatory (100 mg/kg) ([1]; rat, 100 mg/kg (P.O.), reference medicine)
O=C(O)Cc1ccc(CC2CCCC2=NO)cc1 (single isomer, unassigned) [4-(2-Hydroxyiminocyclopentan-1-ylmethyl)phenylacetic Acid] | 49.7% | 54.8% |  |  | 
CC(C(=O)O)c1ccc(CC2CCCC2=O)cc1 [2-(4-(2-Oxocyclopentan-1-ylmethyl)phenyl)-propionic acid I-a] [2-[4-(2-Oxocyclopentan-1-ylmethyl)phenyl]-propionic Acid L-Arginine Salt] |  |  | 69.8% | 66.7% | 
CC(C(=O)O)c1ccc(CC2CCCC2=O)cc1 (stereo not shown) [2-(4-(2-Oxocyclopentan-1-ylmethyl)phenyl)-propionic acid] [2-[4-(2-Oxocyclopentan-1-ylmethyl)phenyl]-propionic Acid] |  |  |  | 95.8% | 
CC(C(=O)O)c1ccc(CC2CCCCC2=NO)cc1 (stereo not shown) [2-[4-(2-Hydroxyiminocyclohexan-1-ylmethyl)phenyl]propionic Acid] | 78.2% | 53.1% |  |  | 
CC(C(=O)O)c1ccc(CC2CCCC2=NO)cc1 (stereo not shown) [2-[4-(2-Hydroxyiminocyclopentan-1-ylmethyl)phenyl]propionic Acid] | 67.4% | 70% |  |  | 
CC(C(=O)O)c1ccc(CC2CCCCC2=O)cc1 (stereo not shown) [2-[4-(2-Oxocyclohexan-1-ylmethyl)phenyl]-propionic Acid] | 79.9% | 63.3% |  |  | 
CC(C(=O)O)c1ccc(CC2CCCC2=O)cc1 (stereo not shown) [2-[4-(2-Oxocyclopentan-1-ylmethyl)phenyl]-propionic Acid] | 51.4% |  |  |  | 
O=C(O)Cc1ccc(CC2CCCCC2=O)cc1 (stereo not shown) [4-(2-Oxocyclohexan-1-ylmethyl)phenylacetic Acid] | 35.1% | 45.1% |  |  | 
O=C(O)Cc1ccc(CC2CCCC2=O)cc1 (stereo not shown) [4-(2-Oxocyclopentan-1-ylmethyl)phenylacetic Acid] | 65.6% | 42.5% |  |  | 
CCCCC1C(=O)N(c2ccccc2)N(c2ccccc2)C1=O [Phenylbutazone, reference compound] | 30.6% | 37% |  |  | 57.4%
